Data: the supplement of paper PMC10307832

compound: C[C@@H](C(=O)N[C@@H](C1CCCCC1)C(=O)N2CCC[C@H]2C(=O)N[C@@H]3[C@@H](CC4=CC=CC=C34)OCC#CC#CCO[C@@H]5CC6=CC=CC=C6[C@@H]5NC(=O)[C@@H]7CCCN7C(=O)[C@H](C8CCCCC8)NC(=O)[C@H](C)NC)NC [AZD5582] + O=C(CCCCCCC(=O)Nc1ccccc1)NO [Vorinostat] (partner 1 µM); test: relative viability (nuclei count vs DMSO), 5 days (fraction); higher = more cells survive; conditions: first compound 0.001581 µM
In short: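 Cells from lung cancer lines were seeded into 1536-well plates and, one day later, dosed by pin tool. Treatments were either a single drug or a fixed dose of an anchor drug with five library-drug doses (not always all listed) in √10 steps. After 5 days, nuclei were stained in a one-step fixation (final 0.05% Triton X-100, 1% formaldehyde, 1 ug/ml Hoechst) and counted on 4× images, and relative viability is the treated-to-vehicle nuclei ratio, as the median of duplicate plates.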

First: EMC-BAC-2
Second: H3255
The relative viability of the first is lower: 0.406 for the first, 0.831 for the second.

Going from HARA to HCC-15, the relative viability rises from 0.659 to 0.762.

Compared with HCC-44, HCC-78 is lower in relative viability: 1.04 for the first, 0.414 for the second.

First: HCC-366
Second: HCC-827
The relative viability of the first is lower: 0.239 for the first, 0.771 for the second.

Compared with HOP-62, IA-LM is higher in relative viability: 0.506 for the first, 0.772 for the second.

Compared with LC-2-ad, LCLC-97TM1 is lower in relative viability: 0.697 for the first, 0.34 for the second.

Compared with LCLC-103H, LK-2 is lower in relative viability: 0.736 for the first, 0.269 for the second.

Going from LOU-NH91 to LU99A, the relative viability falls from 0.867 to 0.503.

Compared with LXF-289, NCI-H23 is lower in relative viability: 0.698 for the first, 0.445 for the second.

Going from NCI-H322M to NCI-H358, the relative viability falls from 0.924 to 0.639.

Going from NCI-H441 to NCI-H460, the relative viability falls from 0.723 to 0.655.

First: NCI-H520
Second: NCI-H522
The relative viability of the first is higher: 0.833 for the first, 0.764 for the second.

First: NCI-H596
Second: NCI-H647
The relative viability of the first is higher: 0.506 for the first, 0.353 for the second.

NCI-H1648 was tested, and the relative viability was 0.415.

same assay, conditions: first compound 0.005 µM

Compared with 201T, A-427 is lower in relative viability: 1.11 for the first, 0.862 for the second.

First: ABC-1
Second: BEN
The relative viability of the first is higher: 1.57 for the first, 0.568 for the second.

First: CAL-12T
Second: COR-L23
The relative viability of the first is higher: 0.703 for the first, 0.495 for the second.

Going from COR-L 105 to ChaGo-K-1, the relative viability falls from 0.912 to 0.767.

Compared with EKVX, EMC-BAC-2 is lower in relative viability: 0.934 for the first, 0.474 for the second.

First: H3255
Second: HARA
The relative viability of the first is higher: 0.976 for the first, 0.69 for the second.

Compared with HCC-15, HCC-44 is higher in relative viability: 0.883 for the first, 1.01 for the second.

Compared with HCC-78, HCC-366 is lower in relative viability: 0.493 for the first, 0.398 for the second.

Compared with HCC-827, HOP-62 is lower in relative viability: 0.892 for the first, 0.663 for the second.

Going from IA-LM to LC-2-ad, the relative viability falls from 0.907 to 0.726.

First: LCLC-97TM1
Second: LCLC-103H
The relative viability of the first is lower: 0.62 for the first, 0.797 for the second.

First: LK-2
Second: LOU-NH91
The relative viability of the first is lower: 0.295 for the first, 0.872 for the second.

Going from LU99A to LXF-289, the relative viability rises from 0.482 to 0.779.

Going from NCI-H23 to NCI-H322M, the relative viability rises from 0.583 to 1.01.

First: NCI-H358
Second: NCI-H441
The relative viability of the first is higher: 0.745 for the first, 0.708 for the second.

Going from NCI-H460 to NCI-H520, the relative viability rises from 0.686 to 0.724.

Going from NCI-H522 to NCI-H647, the relative viability falls from 0.827 to 0.515.

Cell Line NCI-H1648 has a relative viability of 0.441.

same assay, conditions: first compound 0.01581 µM

First: 201T
Second: A-427
The relative viability of the first is higher: 0.919 for the first, 0.885 for the second.

First: ABC-1
Second: BEN
The relative viability of the first is higher: 0.934 for the first, 0.591 for the second.

First: CAL-12T
Second: COR-L23
The relative viability of the first is higher: 0.644 for the first, 0.452 for the second.

Going from COR-L 105 to ChaGo-K-1, the relative viability falls from 0.727 to 0.711.

First: EMC-BAC-2
Second: EPLC-272H
The relative viability of the first is lower: 0.375 for the first, 0.429 for the second.

First: H3255
Second: HARA
The relative viability of the first is higher: 0.722 for the first, 0.441 for the second.

For HCC-15, the relative viability was 0.752.
